Active and inactive are the calls of the source. The rule behind the calls is not given here.
Key:
[1] = Metal chelating activity of the compound assessed as Cu2+ complex formation at 1 x 10' -3 M by spectrometry; type: physicochemical; conditions: 1000 µM
[2] = target: T1, Catechol O-methyltransferase (Homo sapiens) (UniProt P21964); assay: Inhibition of catechol-O-methyltransferase (unknown origin)-mediated l-norepinephrine methylation; conditions: concentration not given here
T1 sequence (whole entry): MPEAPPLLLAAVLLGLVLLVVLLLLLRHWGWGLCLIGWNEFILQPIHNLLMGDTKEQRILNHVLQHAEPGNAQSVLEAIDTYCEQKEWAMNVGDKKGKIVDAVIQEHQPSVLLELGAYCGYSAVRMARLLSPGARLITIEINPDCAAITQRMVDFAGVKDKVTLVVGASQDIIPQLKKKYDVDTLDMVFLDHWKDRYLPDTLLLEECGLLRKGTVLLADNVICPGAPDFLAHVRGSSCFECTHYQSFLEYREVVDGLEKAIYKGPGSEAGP

[3] = organism: Rattus norvegicus; assay: Potentiation of l-norepinephrine-induced adrenergic receptor activity in rat vas deferens assessed as contraction; type: tissue-based
[4] = target: T1, Catechol O-methyltransferase (Homo sapiens); assay: Activity of catechol-O-methyltransferase (unknown origin)
[5] = tested on: Rattus norvegicus; assay: Increase blood pressure in rat at 100 mg/kg; type: functional, organism-based; set-up: dose 100 mg/kg
[6] = organism: Rattus norvegicus; assay: Agonist activity at adrenergic receptor in rat vas deferens at 13 ug/ml; type: tissue-based
[7] = tested on: Rattus norvegicus; assay: Decrease in blood pressure in rat at 120 mg/kg; type: functional, organism-based; set-up: dose 120 mg/kg
[8] = tested on: Rattus norvegicus; assay: Decrease in blood pressure in rat at 0.150 mg/kg; type: functional, organism-based; set-up: dose 0.15 mg/kg
[9] = organism: Rattus norvegicus; assay: Agonist activity at adrenergic receptor in rat vas deferens at 0.165 ug/ml; type: tissue-based
[10] = tested on: Rattus norvegicus; assay: Increase blood pressure in rat at 1 mg/kg; type: functional, organism-based; set-up: dose 1 mg/kg

Br.NC[C@H](O)c1ccc(O)c(O)c1
Activity [1]: Active

Oc1ccccc1O [CATECHOL]
Activity [1]: Active

Br.NCC(O)c1cccc(O)c1O (configuration not stated)
inhibition [2]: 25% | Activity [1]: Active | Activity [3]: Active | Activity [4]: < 5% | Activity [5]: Active | Activity [6]: Active

CC(C)NCC(O)c1cccc(O)c1O (configuration not stated)
Activity [7]: Active

CC(C)NCC(O)c1ccc(O)c(O)c1 (racemic)
Activity [8]: Active

NC[C@@H](O)c1ccc(O)c(O)c1
Activity [9]: Active | Activity [10]: Active

Source: ChEMBL document CHEMBL3271950, “2,3-Dihydroxyphenethanolamine as an adrenergic agent” (J Med Chem, 1976)
